{"source": "patent US20260217682A1", "about": "“STILBENE COMPOUND AND PREPARATION METHOD THEREFOR AND USE THEREOF” (THE HONG KONG UNIVERSITY OF SCIENCE AND TECHNOLOGY, priority 2022, published 2026)", "tested_on": "human HaCaT cells", "assay": "Cytotoxicity assay (MTT colorimetric assay)", "format": "cell-based", "conditions": "0.3-100 μM, 48 hours of treatment", "procedure": "HaCaT cells were inoculated at a density of 5.0×10^3 cells/mL in a 96-well culture plate, with 100 μL per well. […] After 48 hours of treatment, 10 μL of MTT solution was added to each well, and the cells were incubated at 37° C. for an additional 4 hours. The culture was then terminated, the supernatant was discarded, and 150 μL of DMSO was added to each well. The plate was shaken for 10 minutes for full dissolution. The absorbance (OD) of each well was measured at 490 nm using an ELISA reader. The wells without drug treatment served as controls, and cell viability was calculated using the formula: Cell viability", "data": [{"smiles": "Oc1ccc(C=Cc2cc(O)cc(O)c2)cc1", "note": "[resveratrol]", "values": [{"measurement": "cytotoxicity (cell viability)", "result": "neither compound RE-1 nor resveratrol exhibited significant cytotoxicity"}]}]}
